Results as given in ChEMBL document CHEMBL1201861, “Genomics of Drug Sensitity in Cancer screening data, Wellcome Trust Sanger Institute”.

Assays:
DoTc2-4510 = assay: cells; assay type: functional, cell-based, Homo sapiens; conditions: Homo sapiens, DoTc2-4510
MC-CAR = assay: cells; assay type: functional, cell-based, Homo sapiens; conditions: Homo sapiens, MC-CAR;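 further: growth inhibition of the human MC-CAR cell line, read out by a cell viability assay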
Description: SANGER: Inhibition of human MC-CAR cell growth in a cell viability assay.

MDA-MB-453 = assay: cells; assay type: functional, cell-based, Homo sapiens; conditions: Homo sapiens, MDA-MB-453
Description: SANGER: Inhibition of human MDA-MB-453 cell growth in a cell viability assay.

LU-165 = assay: cells; assay type: functional, cell-based, Homo sapiens; conditions: Homo sapiens, LU-165
Description: SANGER: Inhibition of human LU-165 cell growth in a cell viability assay.

H4 = assay: cells; assay type: functional, cell-based, Homo sapiens; conditions: Homo sapiens, H4
Description: SANGER: Inhibition of human H4 cell growth in a cell viability assay.

MRK-nu-1 = assay: cells; assay type: functional, cell-based, Homo sapiens; conditions: Homo sapiens, MRK-nu-1;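 further: cell viability assay measuring growth suppression of human MRK-nu-1 cells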
Description: SANGER: Inhibition of human MRK-nu-1 cell growth in a cell viability assay.

KYSE-180 = assay: cells; assay type: functional, cell-based, Homo sapiens; conditions: Homo sapiens, KYSE-180;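 further: growth inhibition of KYSE-180 cells, read out with a cell viability assay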
Description: SANGER: Inhibition of human KYSE-180 cell growth in a cell viability assay.

SW1710 = assay: cells; assay type: functional, cell-based, Homo sapiens; conditions: Homo sapiens, SW1710;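 further: growth inhibition of SW1710 cells, determined with a cell viability assay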
Description: SANGER: Inhibition of human SW1710 cell growth in a cell viability assay.

CAMA-1 = assay: cells; assay type: functional, cell-based, Homo sapiens; conditions: Homo sapiens, CAMA-1;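 further: growth inhibition of CAMA-1 cells, read out with a cell viability assay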
Description: SANGER: Inhibition of human CAMA-1 cell growth in a cell viability assay.

SW48 = assay: cells; assay type: functional, cell-based, Homo sapiens; conditions: Homo sapiens, SW48;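 further: growth inhibition of SW48 cells, read out with a cell viability assay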
Description: SANGER: Inhibition of human SW48 cell growth in a cell viability assay.

NCI-H810 = assay: cells; assay type: functional, cell-based, Homo sapiens; conditions: Homo sapiens, NCI-H810;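 further: IC50 reflects inhibition of cancer cell line growth, read out with a cell viability assay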
Description: SANGER: Inhibition of human NCI-H810 cell growth in a cell viability assay.

HTC-C3 = assay: cells; assay type: functional, cell-based, Homo sapiens; conditions: Homo sapiens, HTC-C3;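 further: inhibition of cell growth, read out with a cell viability assay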
Description: SANGER: Inhibition of human HTC-C3 cell growth in a cell viability assay.

SK-MEL-24 = assay: cells; assay type: functional, cell-based, Homo sapiens; conditions: Homo sapiens, SK-MEL-24;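 further: growth inhibition read out by a cell viability assay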
Description: SANGER: Inhibition of human SK-MEL-24 cell growth in a cell viability assay.

THP-1 = assay: cells; assay type: functional, cell-based, Homo sapiens; conditions: Homo sapiens, THP-1;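 further: growth inhibition of THP-1 cells, read out via a cell viability assay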
Description: SANGER: Inhibition of human THP-1 cell growth in a cell viability assay.

Capan-2 = assay: cells; assay type: functional, cell-based, Homo sapiens; conditions: Homo sapiens, Capan-2;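 further: Capan-2 cell growth inhibition, read out with a viability assay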
Description: SANGER: Inhibition of human Capan-2 cell growth in a cell viability assay.

DMS-153 = assay: cells; assay type: functional, cell-based, Homo sapiens; conditions: Homo sapiens, DMS-153
Description: SANGER: Inhibition of human DMS-153 cell growth in a cell viability assay.

CHP-126 = assay: cells; assay type: functional, cell-based, Homo sapiens; conditions: Homo sapiens, CHP-126
Description: SANGER: Inhibition of human CHP-126 cell growth in a cell viability assay.

G-401 = assay: cells; assay type: functional, cell-based, Homo sapiens; conditions: Homo sapiens, G-401
Description: SANGER: Inhibition of human G-401 cell growth in a cell viability assay.

DU-145 = assay: cells; assay type: functional, cell-based, Homo sapiens; conditions: Homo sapiens, DU-145
Description: SANGER: Inhibition of human DU-145 cell growth in a cell viability assay.

SNU-387 = assay: cells; assay type: functional, cell-based, Homo sapiens; conditions: Homo sapiens, SNU-387
Description: SANGER: Inhibition of human SNU-387 cell growth in a cell viability assay.

LP-1 = assay: cells; assay type: functional, cell-based, Homo sapiens; conditions: Homo sapiens, LP-1;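 further: growth inhibition of human LP-1 cells, with the read-out taken from a cell viability assay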
Description: SANGER: Inhibition of human LP-1 cell growth in a cell viability assay.

SW1417 = assay: cells; assay type: functional, cell-based, Homo sapiens; conditions: Homo sapiens, SW1417;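 further: growth inhibition of human SW1417 cells, read out with a cell viability assay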
Description: SANGER: Inhibition of human SW1417 cell growth in a cell viability assay.

SW1088 = assay: cells; assay type: functional, cell-based, Homo sapiens; conditions: Homo sapiens, SW1088;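 further: growth inhibition of human SW1088 cells, read out by a cell viability assay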
Description: SANGER: Inhibition of human SW1088 cell growth in a cell viability assay.

CAL-62 = assay: cells; assay type: functional, cell-based, Homo sapiens; conditions: Homo sapiens, CAL-62;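 further: growth inhibition of CAL-62 cells, read out with a cell viability assay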
Description: SANGER: Inhibition of human CAL-62 cell growth in a cell viability assay.

HT55 = assay: cells; assay type: functional, cell-based, Homo sapiens; conditions: Homo sapiens, HT55;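 further: cell viability readout measuring growth inhibition of human HT55 cells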
Description: SANGER: Inhibition of human HT55 cell growth in a cell viability assay.

RCM-1 = assay: cells; assay type: functional, cell-based, Homo sapiens; conditions: Homo sapiens, RCM-1;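 further: growth inhibition of the RCM-1 line, determined with a cell viability readout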
Description: SANGER: Inhibition of human RCM-1 cell growth in a cell viability assay.

FTC-133 = assay: cells; assay type: functional, cell-based, Homo sapiens; conditions: Homo sapiens, FTC-133
SNU-16 = assay: cells; assay type: functional, cell-based, Homo sapiens; conditions: Homo sapiens, SNU-16;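 further: growth inhibition of human SNU-16 cells, determined with a cell viability readout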
Description: SANGER: Inhibition of human NCI-SNU-16 cell growth in a cell viability assay.

L-540 = assay: cells; assay type: functional, cell-based, Homo sapiens; conditions: Homo sapiens, L-540;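 further: growth inhibition of the human L-540 cell line, read out with a viability assay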
Description: SANGER: Inhibition of human L-540 cell growth in a cell viability assay.

SUP-T1 = assay: cells; assay type: functional, cell-based, Homo sapiens; conditions: Homo sapiens, SUP-T1;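 further: growth inhibition of human SUP-T1 cells, read out as cell viability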
Description: SANGER: Inhibition of human SUP-T1 cell growth in a cell viability assay.

C3A = assay: cells; assay type: functional, cell-based, Homo sapiens; conditions: Homo sapiens, C3A;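 further: growth inhibition of C3A human cells, quantified with a cell viability readout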
Description: SANGER: Inhibition of human C3A cell growth in a cell viability assay.

NY = assay: cells; assay type: functional, cell-based, Homo sapiens; conditions: Homo sapiens, NY
Description: SANGER: Inhibition of human NY cell growth in a cell viability assay.

CaR-1 = assay: cells; assay type: functional, cell-based, Homo sapiens; conditions: Homo sapiens, CaR-1;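 further: growth inhibition of human CaR-1 cancer cells, read out with a cell viability assay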
Description: SANGER: Inhibition of human CaR-1 cell growth in a cell viability assay.

NCI-H748 = assay: cells; assay type: functional, cell-based, Homo sapiens; conditions: Homo sapiens, NCI-H748;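 further: growth inhibition of NCI-H748 cells, measured by a cell viability assay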
Description: SANGER: Inhibition of human NCI-H748 cell growth in a cell viability assay.

WM-115 = assay: cells; assay type: functional, cell-based, Homo sapiens; conditions: Homo sapiens, WM-115
Description: SANGER: Inhibition of human WM-115 cell growth in a cell viability assay.

HT-1080 = assay: cells; assay type: functional, cell-based, Homo sapiens; conditions: Homo sapiens, HT-1080
Description: SANGER: Inhibition of human HT-1080 cell growth in a cell viability assay.

MDA-MB-175-VII = assay: cells; assay type: functional, cell-based, Homo sapiens; conditions: Homo sapiens, MDA-MB-175-VII
VMRC-RCZ = assay: cells; assay type: functional, cell-based, Homo sapiens; conditions: Homo sapiens, VMRC-RCZ
Description: SANGER: Inhibition of human VMRC-RCZ cell growth in a cell viability assay.

SCLC-21H = assay: cells; assay type: functional, cell-based, Homo sapiens; conditions: Homo sapiens, SCLC-21H;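 further: growth inhibition of cultured human SCLC-21H cells, read out with a cell viability assay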
Description: SANGER: Inhibition of human SCLC-21H cell growth in a cell viability assay.

NCI-H2009 = assay: cells; assay type: functional, cell-based, Homo sapiens; conditions: Homo sapiens, NCI-H2009;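 further: cell viability assay measuring inhibition of NCI-H2009 cell growth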
Description: SANGER: Inhibition of human NCI-H2009 cell growth in a cell viability assay.

BL-70 = assay: SANGER: Inhibition of human BL-70 cell growth in a cell viability assay.; assay type: functional, cell-based; conditions: Homo sapiens, BL-70
LU-99A = assay: cells; assay type: functional, cell-based, Homo sapiens; conditions: Homo sapiens, LU-99A;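 further: growth inhibition of LU-99A cells, read out with a cell viability assay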
Description: SANGER: Inhibition of human LU-99A cell growth in a cell viability assay.

HT1197 = assay: cells; assay type: functional, cell-based, Homo sapiens, HT-1197; conditions: Homo sapiens, HT1197
Description: SANGER: Inhibition of human HT-1197 cell growth in a cell viability assay.

NCI-H524 = assay: cells; assay type: functional, cell-based, Homo sapiens; conditions: Homo sapiens, NCI-H524;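 further: growth inhibition of human NCI-H524 cells, read out through a cell viability assay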
Description: SANGER: Inhibition of human NCI-H524 cell growth in a cell viability assay.

Ca-Ski = assay: cells; assay type: functional, cell-based, Homo sapiens; conditions: Homo sapiens, Ca-Ski;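 further: cell viability assay measuring inhibition of Ca-Ski cell growth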
Description: SANGER: Inhibition of human Ca-Ski cell growth in a cell viability assay.

HO-1-N-1 = assay: cells; assay type: functional, cell-based, Homo sapiens; conditions: Homo sapiens, HO-1-N-1;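 further: growth inhibition of human HO-1-N-1 cells, read out with a cell viability assay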
Description: SANGER: Inhibition of human HO-1-N-1 cell growth in a cell viability assay.

BHT-101 = assay: cells; assay type: functional, cell-based, Homo sapiens; conditions: Homo sapiens, BHT-101
Description: SANGER: Inhibition of human BHT-101 cell growth in a cell viability assay.

LC-1F = assay: cells; assay type: functional, cell-based, Homo sapiens; conditions: Homo sapiens, LC-1F;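 further: growth inhibition of human LC-1F cells, read out with a cell viability assay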
Description: SANGER: Inhibition of human LC-1F cell growth in a cell viability assay.

A-375 = assay: cells; assay type: functional, cell-based, Homo sapiens; conditions: Homo sapiens, A-375;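 further: growth inhibition of A375 cells, read out with a cell viability assay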
Description: SANGER: Inhibition of human A375 cell growth in a cell viability assay.

N#Cc1c(O)c2c(-c3ccc(-c4ccccc4O)cc3)csc2[nH]c1=O
IC50 (DoTc2-4510): > 1020 nM | IC50 (MC-CAR): 172 nM | IC50 (MDA-MB-453): > 1020 nM | IC50 (LU-165): > 1020 nM | IC50 (H4): > 1020 nM | IC50 (MRK-nu-1): 178 nM | IC50 (KYSE-180): > 1020 nM | IC50 (SW1710): > 1020 nM | IC50 (CAMA-1): > 1020 nM | IC50 (SW48): > 1020 nM | IC50 (NCI-H810): > 1020 nM | IC50 (HTC-C3): > 1020 nM | IC50 (SK-MEL-24): > 1020 nM | IC50 (THP-1): 342 nM | IC50 (Capan-2): > 1020 nM | IC50 (DMS-153): 373 nM | IC50 (CHP-126): 269 nM | IC50 (G-401): > 1020 nM | IC50 (DU-145): > 1020 nM | IC50 (SNU-387): > 1020 nM | IC50 (LP-1): > 1020 nM | IC50 (SW1417): > 1020 nM | IC50 (SW1088): > 1020 nM | IC50 (CAL-62): > 1020 nM | IC50 (HT55): > 1020 nM | IC50 (RCM-1): > 1020 nM | IC50 (FTC-133): > 1020 nM | IC50 (SNU-16): > 1020 nM | IC50 (L-540): 848 nM | IC50 (SUP-T1): 265 nM | IC50 (C3A): > 1020 nM | IC50 (NY): > 1020 nM | IC50 (CaR-1): > 1020 nM | IC50 (NCI-H748): > 1020 nM | IC50 (WM-115): > 1020 nM | IC50 (HT-1080): > 1020 nM | IC50 (MDA-MB-175-VII): > 1020 nM | IC50 (VMRC-RCZ): > 1020 nM | IC50 (SCLC-21H): > 1020 nM | IC50 (NCI-H2009): > 1020 nM | IC50 (BL-70): 108 nM | IC50 (LU-99A): > 1020 nM | IC50 (HT1197): > 1020 nM | IC50 (NCI-H524): > 1020 nM | IC50 (Ca-Ski): > 1020 nM | IC50 (HO-1-N-1): > 1020 nM | IC50 (BHT-101): > 1020 nM | IC50 (LC-1F): > 1020 nM | IC50 (A-375): > 1020 nM

Cc1cn(-c2cc(NC(=O)c3ccc(C)c(Nc4nccc(-c5cccnc5)n4)c3)cc(C(F)(F)F)c2)cn1 [NILOTINIB]
IC50 (DoTc2-4510): > 2000 nM | IC50 (MDA-MB-453): > 2000 nM | IC50 (H4): > 2000 nM | IC50 (KYSE-180): > 2000 nM | IC50 (SW1710): > 2000 nM | IC50 (CAMA-1): > 2000 nM | IC50 (SW48): > 2000 nM | IC50 (NCI-H810): > 2000 nM | IC50 (HTC-C3): > 2000 nM | IC50 (SK-MEL-24): > 2000 nM | IC50 (Capan-2): > 2000 nM | IC50 (G-401): > 2000 nM | IC50 (DU-145): > 2000 nM | IC50 (SNU-387): > 2000 nM | IC50 (SW1417): > 2000 nM | IC50 (SW1088): > 2000 nM | IC50 (CAL-62): > 2000 nM | IC50 (HT55): > 2000 nM | IC50 (RCM-1): > 2000 nM | IC50 (FTC-133): > 2000 nM | IC50 (C3A): > 2000 nM | IC50 (NY): > 2000 nM | IC50 (CaR-1): > 2000 nM | IC50 (WM-115): > 2000 nM | IC50 (HT-1080): > 2000 nM | IC50 (MDA-MB-175-VII): > 2000 nM | IC50 (VMRC-RCZ): > 2000 nM | IC50 (NCI-H2009): > 2000 nM | IC50 (LU-99A): > 2000 nM | IC50 (HT1197): > 2000 nM | IC50 (Ca-Ski): > 2000 nM | IC50 (HO-1-N-1): > 2000 nM | IC50 (BHT-101): 643 nM | IC50 (A-375): > 2000 nM
